Among the test systems are EKVX NSCLC; HL-60(TB) leukemia; MOLT-4 leukemia; SK-OV-3 ovarian; U251 CNS; HCC-2998 colon; UACC-257 melanoma; SK-MEL-5 melanoma; SR leukemia; SNB-75 CNS.
What all share (experiment): growth of human tumour cells (NCI), 48 h

The record followed here is PubChem BioAssay (NCI).

“And” between values parts separate entries of the source, which are not always exact repeats. Identical values can stand only once.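 Briefly, cells in 96-well plates were exposed to five compound concentrations for 48 h, and endpoints were estimated by linear interpolation. GI50 = concentration required for 50% inhibition of growth. TGI: total growth inhibition.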

For the compound `Nc1c(O)c(S(=O)(=O)O)c(O)c2c1C(=O)c1ccccc1C2=O`, the GI50 in the assay with EKVX NSCLC was 3.09 µM; in the assay with HL-60(TB) leukemia, 1.56 µM; in the assay with MOLT-4 leukemia it was 1.9 µM; with SK-OV-3 ovarian, 1.98 µM; in the assay with U251 CNS, 3.09 µM; in the assay with HCC-2998 colon, 2.84 µM. The GI50 in the assay with UACC-257 melanoma was 2.38 µM; in the assay on SK-MEL-5 melanoma, 1.97 µM; with SR leukemia, 2.03 µM. Besides, the TGI with EKVX NSCLC was greater than 100 µM; in the assay on HL-60(TB) leukemia, 3.65 µM; in the assay with MOLT-4 leukemia, 4.91 µM; with SK-OV-3 ovarian, 5.36 µM; with U251 CNS, 11.1 µM; with HCC-2998 colon, 32.8 µM. The results for the TGI in the assay on UACC-257 melanoma, in the assay with SK-MEL-5 melanoma and in the assay with SR leukemia were 6.33 µM, 4.07 µM and 7.17 µM, respectively.
On to `COc1ccc(Cn2cc(Cn3c(=O)c(-c4nc5ccccc5[nH]4)cc4ccccc43)nn2)c(OC)c1OC`, for which the GI50 in the assay on EKVX NSCLC was 0.904 µM and 0.605 µM; in the assay on HL-60(TB) leukemia, 0.114 µM and 0.306 µM; in the assay with MOLT-4 leukemia, 0.468 µM; with SNB-75 CNS it was 0.0354 µM; in the assay on U251 CNS it was 0.308 µM and 0.183 µM; in the assay on HCC-2998 colon, 0.174 µM and 0.291 µM. The GI50 with UACC-257 melanoma is 0.796 µM and 2.22 µM; with SK-MEL-5 melanoma, 0.307 µM and 0.274 µM; with SR leukemia, 0.291 µM. For the same compound, the TGI in the assay with EKVX NSCLC is 50 µM and > 100 µM; in the assay with HL-60(TB) leukemia, 50 µM and > 100 µM; in the assay on MOLT-4 leukemia, greater than 100 µM; in the assay with SNB-75 CNS, 0.432 µM; with U251 CNS it was 8.29 µM and 17.6 µM; in the assay with HCC-2998 colon it was 1.2 µM and 2.07 µM. Further, the TGI is 1.04 µM and 1.45 µM with SK-MEL-5 melanoma; greater than 100 µM with SR leukemia.
Consider `O=C(O/N=C1/CCCC/C1=C\c1ccccc1)c1ccc(Cl)cc1`, for which the TGI in the assay on EKVX NSCLC was greater than 100 µM; in the assay with HL-60(TB) leukemia, greater than 100 µM; with SK-OV-3 ovarian it was greater than 100 µM; with SNB-75 CNS it was greater than 100 µM; in the assay on U251 CNS it was greater than 100 µM; in the assay with HCC-2998 colon it was 36.2 µM. Also, the TGI with UACC-257 melanoma, in the assay on SK-MEL-5 melanoma and in the assay on SR leukemia was greater than 100 µM throughout.
With `COc1cc2c3c(n(CCCNCCN4CCOCC4)c(=O)c2cc1OC)-c1cc2c(cc1C3=O)OCO2`, the GI50 with EKVX NSCLC was 8.93 µM and 7.24 µM; with HL-60(TB) leukemia it was 0.321 µM and 2.7 µM; with MOLT-4 leukemia it was less than 0.005 µM; with SK-OV-3 ovarian, 4.68 µM and 1.27 µM; in the assay with SNB-75 CNS, 13.6 µM and 3.69 µM; in the assay on UACC-257 melanoma, 6.99 µM and 19.2 µM. In addition, the GI50 with SR leukemia was less than 0.005 µM. Further, the TGI was 18.2 µM and 18.6 µM with EKVX NSCLC; 19.7 µM with MOLT-4 leukemia; 50 µM and 9.87 µM with SNB-75 CNS; 0.959 µM and 4.55 µM in the assay with U251 CNS; 14.2 µM and 46.2 µM with UACC-257 melanoma; 7.74 µM and 20.2 µM in the assay on SK-MEL-5 melanoma.
For `Cn1cnc([N+](=O)[O-])c1Sc1nnc(C(F)(F)F)n1C`, the TGI in the assay with EKVX NSCLC was greater than 100 µM; in the assay on MOLT-4 leukemia it was 38.2 µM; with SK-OV-3 ovarian it was greater than 100 µM; in the assay with SNB-75 CNS it was greater than 100 µM; in the assay with U251 CNS it was 37.2 µM; in the assay on HCC-2998 colon it was greater than 100 µM. The TGI in the assay with UACC-257 melanoma was 32.9 µM; with SK-MEL-5 melanoma, greater than 100 µM; in the assay on SR leukemia it was 45 µM.
For `OC(C(=Nc1ccccc1)c1ccccc1)c1ccccc1` (configuration not stated), the TGI in the assay with EKVX NSCLC was found to be 9.35 µM; in the assay with HL-60(TB) leukemia, 56.1 µM; in the assay on MOLT-4 leukemia, 55.1 µM; in the assay on SK-OV-3 ovarian, 55.8 µM; in the assay with SNB-75 CNS it was 25.4 µM; in the assay with U251 CNS, 15.6 µM. Besides, the TGI in the assay with UACC-257 melanoma is 5.56 µM; in the assay with SK-MEL-5 melanoma, 5.87 µM; with SR leukemia, 10.7 µM.
As to `CC(C)(C)C(=O)OCC(COC(=O)C(C)(C)C)[N+](=O)[O-]`, the TGI with EKVX NSCLC was greater than 100 µM; with HL-60(TB) leukemia, 79.8 µM; with MOLT-4 leukemia, greater than 100 µM; in the assay with SK-OV-3 ovarian it was greater than 100 µM; in the assay on SNB-75 CNS, greater than 100 µM; in the assay with U251 CNS, greater than 100 µM. Moreover, the TGI in the assay with HCC-2998 colon, with UACC-257 melanoma and with SR leukemia was greater than 100 µM each time.
On to `COC(=O)c1cc2c(cc1Cl)SC(N(N(C)C)S(=O)(=O)c1ccc(Cl)cc1)=NS2(=O)=O`, for which the GI50 in the assay with EKVX NSCLC is 17 µM; in the assay with HL-60(TB) leukemia, 16.4 µM; in the assay on MOLT-4 leukemia it was 11.8 µM; in the assay on SK-OV-3 ovarian, 17.9 µM; in the assay with SNB-75 CNS, 23.7 µM; with U251 CNS it was 17 µM. For the same compound, the GI50 is 16.1 µM in the assay on HCC-2998 colon, 14.6 µM in the assay on SK-MEL-5 melanoma and 19.8 µM in the assay on SR leukemia. The TGI amounted to 33 µM in the assay on EKVX NSCLC; 42.6 µM in the assay on HL-60(TB) leukemia; 27.5 µM in the assay on MOLT-4 leukemia; 49.2 µM with SK-OV-3 ovarian; 69.9 µM with SNB-75 CNS; 44.8 µM in the assay with U251 CNS. Besides, the TGI in the assay with HCC-2998 colon turned out to be 32.7 µM; in the assay with SK-MEL-5 melanoma, 27.7 µM; in the assay with SR leukemia, 40.9 µM.
Turning to `Cc1ccc(-n2c(-c3ccc(Cl)cc3)cs/c2=N\NC(=O)COc2n[nH]c(=O)c3ccccc23)cc1`, the GI50 in the assay on EKVX NSCLC is 59.6 µM; in the assay on HL-60(TB) leukemia, greater than 100 µM; in the assay with MOLT-4 leukemia it was greater than 100 µM; in the assay with SK-OV-3 ovarian, 57.9 µM; with SNB-75 CNS, 20.7 µM; in the assay on U251 CNS it was 37.5 µM. For the same compound, the GI50 was 80.2 µM in the assay on UACC-257 melanoma, greater than 100 µM in the assay on SK-MEL-5 melanoma and greater than 100 µM with SR leukemia. In addition, the TGI with EKVX NSCLC was greater than 100 µM; in the assay with HL-60(TB) leukemia it was greater than 100 µM; in the assay with MOLT-4 leukemia it was greater than 100 µM; in the assay on SK-OV-3 ovarian it was greater than 100 µM; in the assay with SNB-75 CNS it was 65.9 µM; with U251 CNS, greater than 100 µM. The TGI in the assay with UACC-257 melanoma, in the assay with SK-MEL-5 melanoma and in the assay with SR leukemia was greater than 100 µM each time.
With `CC1(CO)C(=O)OC12CCCCC2` (configuration not stated), the TGI in the assay with EKVX NSCLC, in the assay on HL-60(TB) leukemia, in the assay on MOLT-4 leukemia, in the assay with SK-OV-3 ovarian, in the assay with SNB-75 CNS and in the assay with HCC-2998 colon was greater than 100 µM throughout. The TGI with UACC-257 melanoma and in the assay with SR leukemia was greater than 100 µM each time.
Turning to `CC(C)CC(=O)CC(O)C(Cl)(Cl)Cl` (configuration not stated), the TGI in the assay with EKVX NSCLC, with MOLT-4 leukemia, in the assay on SK-OV-3 ovarian, with SNB-75 CNS, in the assay with U251 CNS and with HCC-2998 colon was greater than 100 µM each time. Besides, the TGI in the assay on UACC-257 melanoma, in the assay on SK-MEL-5 melanoma and in the assay with SR leukemia was greater than 100 µM throughout.
